Data as given in patent US20240148821A1, “PHARMACEUTICAL USE OF CYCLIC PEPTIDE COMPOUND” (CHUGAI SEIYAKU KABUSHIKI KAISHA, priority 2021, published 2024).
Numbered stars: 1 amine (or outer) side, 2 acyl side, 3 side chain; on linkers, the order of the positions; unused ones are H or OH. Bridge positions count the residues as written; N and C are the ends. Square brackets hold non-standard residues; d marks the D form. Peptide text beside a SMILES is read from it. * marks the point of attachment. hPhe(3-Cl-4-CF3) = N[C@@H](CCc1ccc(C(F)(F)F)c(Cl)c1)C(=O)O; hPhe(3-F,4-CF3) = N[C@@H](CCc1ccc(C(F)(F)F)c(F)c1)C(=O)O; hPhe(4-CF3) = N[C@@H](CCc1ccc(C(F)(F)F)cc1)C(=O)O; Pro(cis-4-Ph) = O=C(O)[C@@H]1C[C@H](c2ccccc2)CN1; NEtPhe(4-Me) = CCN[C@@H](Cc1ccc(C)cc1)C(=O)O; NMePhe(4-Cl) = CN[C@@H](Cc1ccc(Cl)cc1)C(=O)O; NMePhe(4-I) = CN[C@@H](Cc1ccc(I)cc1)C(=O)O; X83 = Cc1ccc(CC[C@H](N[*:1])C(=O)[*:2])cc1; NMedβ3hAla = C[C@H](CC(=O)[*:2])N(C)[*:1]; NMeGly(cBu) = CN[C@H](C(=O)O)C1CCC1; Gly(cPent) = N[C@H](C(=O)O)C1CCCC1; NMeCha = CN[C@@H](CC1CCCCC1)C(=O)O; Hyp = O=C(O)[C@@H]1C[C@@H](O)CN1; NMeChg = CN[C@H](C(=O)O)C1CCCCC1; NMeF = CN[C@@H](Cc1ccccc1)C(=O)O; NMeI = CC[C@H](C)[C@H](NC)C(=O)O; d(β3hL) = CC(C)C[C@@H](N)CC(=O)O; NMeD = CN[C@@H](CC(=O)O)C(=O)O; NMeHpra = C#CCC[C@H](NC)C(=O)O; NMeL = CN[C@@H](CC(C)C)C(=O)O; NMeV = CN[C@H](C(=O)O)C(C)C; d(β3hA) = C[C@@H](N)CC(=O)O; NMeA = CN[C@@H](C)C(=O)O; Piperidide = C1CCN(*)CC1; Ac5c = NC1(C(=O)O)CCCC1; Aze = O=C(O)[C@@H]1CCN1; Sar = CNCC(=O)O

Target: protein-protein interaction between Kras and SOS1 (biotin-tagged human Kras loaded with GDP, His-tagged human SOS1) (Homo sapiens (Human), UniProt P01116, G12D)
Test: Protein-protein interaction inhibition between Kras and SOS1 (KrasG12D-SOS PPI) using AlphaScreen;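 also: kras produced in E. coli, Ni-coupled donor beads and streptavidin acceptor beads, excitation 680 nm with emission detected at 520–620 nm via singlet oxygen transfer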
Assay type: biochemical
Settings: AlphaScreen; biotin-tagged human Kras loaded with GDP, His-tagged human SOS1; read-out: KRAS G12D-SOS PPI IC50

Row | SMILES | IC50
1 | CCO[C@@H]1C[C@H]2C(=O)NC3(CCCC3)C(=O)N(C)[C@@H]([C@@H](C)CC)C(=O)N(C)[C@H](C)CC(=O)N(C)[C@@H](CC(C)C)C(=O)N[C@@H]([C@@H](C)CC)C(=O)N(C)[C@@H](C)C(=O)N3CC[C@H]3C(=O)N(CC)[C@@H](Cc3ccc(C)cc3)C(=O)N(C)CC(=O)N[C@@H](CCc3ccc(C(F)(F)F)c(Cl)c3)C(=O)N2C1 [Compound 951] (cyclo([Ac5c][NMeI][NMedβ3hAla][NMeL]I[NMeA][Aze][NEtPhe(4-Me)][Sar][hPhe(3-Cl-4-CF3)][Hyp](Et))) | 7.9 nM
2 | CC[C@H](C)[C@@H]1NC(=O)[C@H](CC(C)C)N(C)C(=O)C[C@@H](C)NC(=O)[C@H](C(C)C)N(C)C(=O)C2(CCCC2)NC(=O)[C@@H]2CCCN2C(=O)[C@H](CCc2ccc(C(F)(F)F)c(F)c2)NC(=O)CN(C)C(=O)[C@H](CC2CCCCC2)N(C)C(=O)[C@@H]2CCN2C(=O)[C@H](C)N(C)C1=O [Compound 952] (cyclo([Ac5c][NMeV][d(β3hA)][NMeL]I[NMeA][Aze][NMeCha][Sar][hPhe(3-F,4-CF3)]P)) | 120 nM
3 | CC[C@H](C)[C@@H]1NC(=O)[C@H](C2CCC2)N(C)C(=O)C[C@@H](C(=O)N2CCCCC2)N(C)C(=O)[C@H]([C@@H](C)CC)N(C)C(=O)C2(CCCC2)NC(=O)[C@@H]2CCCN2C(=O)[C@H](CCc2ccc(C(F)(F)F)c(Cl)c2)NC(=O)CN(C)C(=O)[C@H](CC2CCCCC2)N(C)C(=O)[C@@H]2CCN2C(=O)[C@H](C)N(C)C1=O [Compound 959] ([NMeGly(cBu)]I[NMeA][Aze][NMeCha][Sar][hPhe(3-Cl-4-CF3)]P[Ac5c][NMeI][NMeD]-Piperidide; lactam N-11) | 1.4 nM
4 | CC[C@H](C)[C@@H]1NC(=O)[C@H](CC(C)C)N(C)C(=O)C[C@@H](C(=O)N2CCCCC2)N(C)C(=O)[C@H](C2CCCCC2)N(C)C(=O)C2(CCCC2)NC(=O)[C@@H]2C[C@H](c3ccccc3)CN2C(=O)[C@H](CCc2ccc(C(F)(F)F)c(Cl)c2)NC(=O)CN(C)C(=O)[C@H](CC2CCCCC2)N(C)C(=O)[C@@H]2CCN2C(=O)CN(C)C1=O [Compound 960] ([NMeL]I[Sar][Aze][NMeCha][Sar][hPhe(3-Cl-4-CF3)][Pro(cis-4-Ph)][Ac5c][NMeChg][NMeD]-Piperidide; lactam N-11) | 7.9 nM
5 | C#CCC[C@H]1C(=O)N[C@@H]([C@@H](C)CC)C(=O)N(C)[C@@H](C)C(=O)N2CC[C@H]2C(=O)N(C)[C@@H](Cc2ccc(I)cc2)C(=O)N(C)CC(=O)N[C@@H](CCc2ccc(C(F)(F)F)c(Cl)c2)C(=O)N2CCC[C@H]2C(=O)NC2(CCCC2)C(=O)N(C)[C@@H](C2CCCCC2)C(=O)N(C)[C@H](C)CC(=O)N1C [Compound 961] (cyclo([Ac5c][NMeChg][NMedβ3hAla][NMeHpra]I[NMeA][Aze][NMePhe(4-I)][Sar][hPhe(3-Cl-4-CF3)]P)) | 12 nM
6 | CC(C)C[C@H]1C(=O)N[C@@H](C2CCCC2)C(=O)N(C)[C@@H](C)C(=O)N2CC[C@H]2C(=O)N(C)[C@@H](CC2CCCCC2)C(=O)N(C)CC(=O)N[C@@H](CCc2ccc(C(F)(F)F)c(Cl)c2)C(=O)N2CCC[C@H]2C(=O)NC2(CCCC2)C(=O)N(C)[C@@H](C(C)C)C(=O)N[C@H](C)CC(=O)N1C [Compound 966] (cyclo([Ac5c][NMeV][d(β3hA)][NMeL][Gly(cPent)][NMeA][Aze][NMeCha][Sar][hPhe(3-Cl-4-CF3)]P)) | 110 nM
7 | C#CCC[C@H]1C(=O)N[C@@H]([C@@H](C)CC)C(=O)N(C)[C@@H](C)C(=O)N2CC[C@H]2C(=O)N(C)[C@@H](Cc2ccc(I)cc2)C(=O)N(C)CC(=O)N[C@@H](CCc2ccc(C(F)(F)F)c(Cl)c2)C(=O)N2CCC[C@H]2C(=O)NC2(CCCC2)C(=O)N(C)[C@@H](C2CCCCC2)C(=O)N[C@H](C)CC(=O)N1C [Compound 971] (cyclo([Ac5c][NMeChg][d(β3hA)][NMeHpra]I[NMeA][Aze][NMePhe(4-I)][Sar][hPhe(3-Cl-4-CF3)]P)) | 16 nM
8 | CC[C@H](C)[C@@H]1NC(=O)[C@H](C)N(C)C(=O)C[C@@H](CC(C)C)NC(=O)[C@H](C(C)C)N(C)C(=O)[C@H](Cc2ccccc2)N(C)C(=O)[C@H](CC(C)C)N(C)C(=O)[C@H](CCc2ccc(C(F)(F)F)cc2)NC(=O)CN(C)C(=O)[C@H](Cc2ccc(Cl)cc2)N(C)C(=O)CN(C)C(=O)CN(C)C1=O [Compound 972] (cyclo(I[Sar][Sar][NMePhe(4-Cl)][Sar][hPhe(4-CF3)][NMeL][NMeF][NMeV][d(β3hL)][NMeA])) | 330 nM
9 | CC[C@H](C)[C@@H]1NC(=O)[C@H](C)N(C)C(=O)C[C@@H](C(=O)N2CCCCC2)N(C)C(=O)[C@H](C(C)C)N(C)C(=O)C2(CCCC2)NC(=O)[C@@H]2CCCN2C(=O)[C@H](CCc2ccc(C)cc2)NC(=O)CN(C)C(=O)[C@H](CC2CCCCC2)N(C)C(=O)[C@@H]2CCN2C(=O)[C@H](C)N(C)C1=O [Compound 976] ([NMeA]I[NMeA][Aze][NMeCha][Sar][X83]P[Ac5c][NMeV][NMeD]-Piperidide; lactam N-11) | 180 nM
